According to the supplement of paper PMC10627819:

Key:
S. aureus Newman [1] = assay: Bliss interaction score (quartile over a dose matrix) (fitness difference); higher = more antagonism (negative = synergy)
In short: (§1)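 The Bliss score subtracts expected fitness, the product of the single-drug fitness values, from observed fitness. Fitness is plate-normalised OD595 at entry into stationary phase, relative to the robust no-drug mean and capped at 1, with single-drug fitness inferred from combinations. Summaries are quartiles over technical, biological and donor/recipient replicates.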

S. pneumoniae D39V [2] = assay: as above
In short: as §1

S. aureus DSM 20231 = assay: as above
In short: as §1

B. subtilis 168 [3] = assay: as above
In short: as §1

S. aureus Newman [4] = assay: fitness (endpoint OD595 vs no drug) (fraction); higher = more growth
In short: (§2)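 Fitness was defined as the optical density at the transition into stationary phase relative to the robust mean of no-drug control wells. Values were capped at 1. Cultures were started at OD595 0.01 in 384-well plates (30 µl, or 55 µl for S. pneumoniae) in TSB, LB Lennox or CY at 37 °C. OD595 was recorded every 30 min over 14 h, with the first reading subtracted as background.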

S. pneumoniae D39V [5] = assay: as above
In short: as §2

B. subtilis 168 [6] = assay: as above
In short: as §2
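Wherever Bliss interaction score (quartile over a dose matrix) is given: first quartile when negative (synergy) and third quartile when positive (antagonism).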

Cc1cc(NS(=O)(=O)c2ccc(N)cc2)no1 [Sulfamethoxazol] + CN(C)c1cc(NC(=O)CNC(C)(C)C)c(O)c2c1C[C@H]1C[C@H]3[C@H](N(C)C)C(O)=C(C(N)=O)C(=O)[C@@]3(O)C(O)=C1C2=O [Tigecycline]
Conditions | Bliss interaction score
B. subtilis 168 [3] | 0.0319
S. aureus DSM 20231 | 0.108
S. aureus Newman [1] | 0.0399
S. pneumoniae D39V [2] | 0.0567

fitness
Conditions | first compound 1 µg/mL | first compound 2 µg/mL | first compound 4 µg/mL
B. subtilis 168 [6], partner 0.039 µg/mL | 0.917 | 0.92 | ≥ 1
B. subtilis 168 [6], partner 0.078 µg/mL | 0.903 | 0.921 | 0.97
B. subtilis 168 [6], partner 0.156 µg/mL | 0.911 | 0.897 | 0.982
S. aureus Newman [4], partner 0.039 µg/mL | 0.991 | 0.996 | ≥ 1
S. aureus Newman [4], partner 0.078 µg/mL | 0.982 | 0.999 | 0.966
S. aureus Newman [4], partner 0.156 µg/mL | 0.986 | 0.983 | ≥ 1
S. pneumoniae D39V [5], partner 0.65 µg/mL | 0.944 | 0.961 | 0.937
S. pneumoniae D39V [5], partner 1.3 µg/mL | 0.952 | 0.932 | 0.937
S. pneumoniae D39V [5], partner 2.6 µg/mL | 0.936 | 0.937 | 0.95

fitness, one replicate
Conditions | partner 0.039 µg/mL | partner 0.078 µg/mL | partner 0.125 µg/mL | partner 0.156 µg/mL | partner 0.25 µg/mL | partner 0.5 µg/mL
B. subtilis 168 [6], first compound 0.5 µg/mL | ≥ 1 | 0.989 | – | 0.959 | – | –
B. subtilis 168 [6], first compound 1 µg/mL | – | – | 0.963 | – | 0.923 | 0.903
B. subtilis 168 [6], first compound 2 µg/mL | – | – | 0.942 | – | 0.88 | 0.859
B. subtilis 168 [6], first compound 4 µg/mL | – | – | 0.922 | – | 0.899 | 0.925
S. aureus Newman [4], first compound 8 µg/mL | 0.856 | 0.865 | – | 0.934 | – | –
